Legend:
IL-10 = IL-10 production by DCs (real time PCR and CBA); type: cell-based, mice (Mus musculus)
[1] = system: cutaneous allograft (B6 donor skin in BALB/c recipients); assay: Murine model of cutaneous allograft, graft immersion-treatment; type: in vivo, mice (Mus musculus)
From the text: A method for treating grafts, including allografts, was developed by the inventors of the present invention. Thus, the method treats the grafts (that may be full organs) instead of recipient that will receive the graft, using as tool a classic murine model of skin transplantation and well established. Such method, to the light of the inventors, may be considered as new and inventive. The said model consists of a complete incompatibility of MHC molecules and was described by BILLINGHAM & MEDAWAR (1951).
BALB/c recipients, which express the MHC II I-A^d molecule, are anaesthetized and the dorsal stem hairs are removed. In the waxed area, 1 cm^2 of the skin was removed in each recipient mouse and the donor tail skin was sutured in the exposed area. The animals are maintained in individual cages and daily monitored. The graft rejection is confirmed by observing the cyanosis, erythema, erosion and cutaneous graft loss.
This model consists of a complete incompatibility of MHC molecules and was described by BILLINGHAM & MEDAWAR (1951). In this model, the donor mouse B6, which expresses the MHC II I-A^b molecule, is sacrificed. […] After this period, the grafts were sutured in the BALB/c recipients' back, who express the MHC II I-A^d molecule, and the rejection clinical progression is daily monitored.
After that, the grafts were sutured in the BALB/c (I-Ad) animals' back. The animals were daily monitored. ***, p<0.0001. n=22-24 mice per group. The results achieved putting the seven independent experiments together.
After this, these grafts were sutured in BALB/c recipients WT and their rejection were daily monitored.
After this, the grafts were sutured in the BALB/c (I-Ad) animals' back. The animals were daily monitored. *, p<0.05. n=4 mice per group.

Hsp70: recombinant Mycobacterium tuberculosis Hsp70 (DnaK) produced in Escherichia coli BL21, LPS removed
IL-10 production, mRNA and protein level (FIG. 11 A) (IL-10; DCs isolated from mice lymph nodes, 24 h): induce the IL-10 production
IL-10 mRNA and protein in DCs TLR2 KO (FIG. 12 A, B) (IL-10; TLR2 KO compared with DCs WT): significant reduction of the mRNA expression
graft acceptance after immersion with Hsp70 or peptides (FIG. 17) ([1]; 60 μg/ml Hsp70 or 15 μg/ml peptide, 60 minutes at 4° C., compared to OVA peptide and peptide 5): inhibited the acute rejection
graft survival compared with grafts treated with OVA (FIG. 1) ([1]; 60 μg/ml, 60 minutes at 4° C.): greater survival
graft protection with grafts from donors IL-10 KO (FIG. 11 E) ([1]; IL-10 KO grafts, 60 μg/ml, 60 minutes): cancelled the protection
Survival average ([1]; graft immersed in 60 μg/mL for 60 minutes, seven independent experiments): 20.0 days
lengthening of graft survival with TLR2 KO grafts (FIG. 12 D) ([1]; mouse, in vivo): dependent on the TLR2 expression in the graft
survival of WT grafts in WT or TLR2 KO recipients (FIG. 12 E) ([1]; mouse, in vivo): very similar survival

From patent US20160295854A1, “COMPOSITION AND METHOD FOR EX-VIVO IMMUNOMODULATION AND/OR PRESERVATION OF ORGANS, METHODS AND USE” (UNIAO BRASILEIRA DE EDUCACAO E ASSISTENCIA , MANTENEDORA DA …, priority 2014, published 2016)
